Measured values published in patent US11878965B2, “Inhibitors of peptidylarginine deiminases” (Gilead Sciences, Inc., priority 2020, dated 2024).

Biological target: human PAD4 (Homo sapiens (Human), UniProt Q9UM07)
Experiment: In Vitro PAD4 BAEE Biochemical Assay
Conditions: human PAD4, BAEE substrate; 5 nM PAD4, 2 mM calcium chloride, 3 mM BAEE; geometric mean of multiple experiments
In short: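 Deimination of BAEE substrate (3 mM) measured as ammonia via o-phthalaldehyde–DTT isoindole fluorescence, 405/535 nm. Tag-free bacterially expressed human PAD4 at 5 nM with 2 mM calcium chloride, pH 7.6 MOPS buffer, 30 min compound preincubation then 2 h reaction, both at 25 °C.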

Sequence of human PAD4 (Q9UM07 2-663): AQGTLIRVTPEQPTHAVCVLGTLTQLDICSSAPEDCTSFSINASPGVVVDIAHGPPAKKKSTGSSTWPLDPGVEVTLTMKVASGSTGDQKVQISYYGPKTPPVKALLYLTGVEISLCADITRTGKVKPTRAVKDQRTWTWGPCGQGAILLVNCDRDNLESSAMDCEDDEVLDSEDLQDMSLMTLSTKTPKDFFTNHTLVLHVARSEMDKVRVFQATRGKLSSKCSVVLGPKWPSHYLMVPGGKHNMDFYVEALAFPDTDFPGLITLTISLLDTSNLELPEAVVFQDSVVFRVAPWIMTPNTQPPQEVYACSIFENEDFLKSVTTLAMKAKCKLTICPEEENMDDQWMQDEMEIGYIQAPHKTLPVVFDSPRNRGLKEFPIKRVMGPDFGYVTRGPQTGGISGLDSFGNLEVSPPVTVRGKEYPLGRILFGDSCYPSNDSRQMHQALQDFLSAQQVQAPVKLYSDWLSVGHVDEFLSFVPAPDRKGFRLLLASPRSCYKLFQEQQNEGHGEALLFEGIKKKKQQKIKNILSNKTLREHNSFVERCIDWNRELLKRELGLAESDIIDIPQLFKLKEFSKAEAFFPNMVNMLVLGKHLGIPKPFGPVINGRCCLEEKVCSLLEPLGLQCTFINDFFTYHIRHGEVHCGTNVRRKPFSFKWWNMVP

Compound | IC50
COc1cc(C(=O)N2[C@H]3CC[C@@H]2[C@H](N)C3)cc2nc(-c3cc4ccc([C@@H](C)NC(=O)c5cnn(C(F)F)c5)nc4n3CC3CC3)n(C)c12 [Example 205, N-((R)-1-(2-(5-((1R,2R,4S)-2-amino-7-azabicyclo[2.2.1]heptane-7-carbonyl)-7-methoxy-1-methyl-1H-benzo[d]imidazol-2-yl)-1-(cyclopropylmethyl)-1H-pyrrolo[2,3-b]pyridin-6-yl)ethyl)-1-(difluoromethyl)-1H-pyrazole-4-carboxamide] | 79.7 nM
2-(1-(cyclopropylmethyl)- 6-((N-(difluoromethyl) methyl)sulfonamido)- 1H-pyrrolo[2,3-b]pyridin-2- yl)-6-fluoro-N-((3S,4S)- 4-fluoropiperidin- 3-yl)-1-methyl-1H- benzo[d]imidazole-5- carboxamide [Example 93] | 146 nM
COc1cc(C(=O)N2CCC[C@@H](N)C2)cc2nc(-c3cc4ccc([C@@H](C)NC(=O)C56CC(F)(C5)C6)c(F)c4n3CC3CC3)n(C)c12 [Example 143, N-((R)-1-(2-(5-((R)-3-aminopiperidine-1-carbonyl)-7-methoxy-1-methyl-1H-benzo[d]imidazol-2-yl)-1-(cyclopropylmethyl)-7-fluoro-1H-indol-6-yl)ethyl)-3-fluorobicyclo[1.1.1]pentane-1-carboxamide] | 502 nM
Cc1cc2c(cc1C(=O)N1CCC[C@@H](N)C1)nc(-c1cc3ccc(N(C(F)F)S(C)(=O)=O)nc3n1CC1CC1)n2C [Example 58, (R)-N-(2-(5-(3-aminopiperidine-1-carbonyl)-1,6-dimethyl-1H-benzo[d]imidazol-2-yl)-1-(cyclopropylmethyl)-1H-pyrrolo [2,3-b]pyridin-6-yl)-N-(difluoromethyl) methanesulfonamide] | 4340 nM
COc1cc(C(=O)N2[C@H]3CC[C@@H]2[C@H](N)C3)cc2nc(-c3cc4ccc(N(C(F)F)S(C)(=O)=O)nc4n3CC3CC3)n(C3CC3)c12 [Example 64, N-(2-(5-((1R,2R,4S)-2-amino-7-azabicyclo[2.2.1]heptane-7-carbonyl)-1-cyclopropyl-7-methoxy-1H-benzo[d]imidazol-2-yl)-1-(cyclopropylmethyl)-1H-pyrrolo [2,3-b]pyridin-6-yl)-N-(difluoromethyl) methanesulfonamide] | 128 nM
COc1cc(C(=O)N2C[C@@H]3C[C@@H](N)[C@H]2C3)cc2nc(-c3cc4ccc(N(C(F)F)S(C)(=O)=O)nc4n3CC3CC3)n(C)c12 [Example 82, N-(2-(5-((1R,4R,6R)-6-amino-2-azabicyclo[2.2.1]heptane-2-carbonyl)-7-methoxy-1-methyl-1H-benzo[d]imidazol-2-yl)-1-(cyclopropylmethyl)-1H-pyrrolo[2,3-b]pyridin-6-yl)-N-(difluoromethyl) methanesulfonamide] | 47600 nM
COc1cc(C(=O)N2C[C@H](N)CCN2C)cc2nc(-c3cc4ccc([C@@H](C)NC(=O)c5ccccc5)nc4n3CC3CC3)n(C)c12 [Example 154, N-((R)-1-(2-(5-((R)-5-amino-2-methylhexahydropyridazine-1-carbonyl)-7-methoxy-1-methyl-1H-benzo[d]imidazol-2-yl)-1-(cyclopropylmethyl)-1H-pyrrolo[2,3-b]pyridin-6-yl)ethyl)benzamide] | 89.7 nM
C[C@H]1CCCS(=O)(=O)N1c1ccc2cc(-c3nc4cc(C(=O)N5CCC[C@@H](N)C5)ccc4n3C3CC3)n(CC3CC3)c2n1 [Example 99, ((R)-3-aminopiperidin-1-yl)(1-cyclopropyl-2-(1-(cyclopropylmethyl)-6-((S)-3-methyl-1,1-dioxido-1,2-thiazinan-2-yl)-1H-pyrrolo[2,3-b]pyridin-2-yl)-1H-benzo[d]imidazol-5-yl) methanone] | 28.4 nM
COc1cc(C(=O)N2CCC[C@@H](N)[C@H]2C)cc2nc(-c3cc4ccc(N(C5CC5)S(C)(=O)=O)nc4n3CC3CC3)n(C)c12 [Example 31, N-(2-(5-((2R,3R)-3-amino-2-methylpiperidine-1-carbonyl)-7-methoxy-1-methyl-1H-benzo[d]imidazol-2-yl)-1-(cyclopropylmethyl)-1H-pyrrolo [2,3-b]pyridin-6-yl)-N-cyclopropylmethanesulfonamide] | 110 nM

The next lines start with the values.

IC50 | Compound
386 nM | COc1cc(C(=O)N2C[C@H](N)CC[C@@H]2C)cc2nc(-c3cc4ccc(-c5c(C)ccnc5-c5cnc(C)s5)nc4n3CC3CC3)n(C)c12 [Example 268, ((2S,5R)-5-amino-2-methylpiperidin-1-yl)(2-(1-(cyclopropylmethyl)-6-(4-methyl-2-(2-methylthiazol-5-yl)pyridin-3-yl)-1H-pyrrolo[2,3-b]pyridin-2-yl)-7-methoxy-1-methyl-1H-benzo[d]imidazol-5-yl)methanone]
148 nM | COc1cc(C(=O)N2C[C@H](N)CCN2C)cc2nc(-c3cc4ccc([C@@H](C)NC(=O)[C@H](C)c5ccccc5)nc4n3CC3CC3)n(C)c12 [Example 164, (R)-N-((R)-1-(2-(5-((R)-5-amino-2-methylhexahydropyridazine-1-carbonyl)-7-methoxy-1-methyl-1H-benzo[d]imidazol-2-yl)-1-(cyclopropylmethyl)-1H-pyrrolo[2,3-b]pyridin-6-yl)ethyl)-2-phenylpropanamide]
83.3 nM | COc1cc(C(=O)N2C[C@H](N)[C@@H]3CC[C@H]2C3)cc2nc(-c3cc4ccc([C@@H](C)NC(=O)C56CC(Cl)(C5)C6)nc4n3CC3CC3)n(C)c12 [Example 229, N-((R)-1-(2-(5-((1S,4R,5R)-4-amino-2-azabicyclo[3.2.1]octane-2-carbonyl)-7-methoxy-1-methyl-1H-benzo[d]imidazol-2-yl)-1-(cyclopropylmethyl)-1H-pyrrolo[2,3-b]pyridin-6-yl)ethyl)-3-chlorobicyclo[1.1.1]pentane-1-carboxamide]
91.4 nM | COc1cc(C(=O)N2C[C@H](N)CCN2C)cc2nc(-c3cc4ccc([C@@H](C)NC(=O)[C@@H](C)c5ccccc5)nc4n3CC3CC3)n(C)c12 [Example 165, (S)-N-((R)-1-(2-(5-((R)-5-amino-2-methylhexahydropyridazine-1-carbonyl)-7-methoxy-1-methyl-1H-benzo[d]imidazol-2-yl)-1-(cyclopropylmethyl)-1H-pyrrolo[2,3-b]pyridin-6-yl)ethyl)-2-phenylpropanamide]
1330 nM | COc1cc(C(=O)N2C[C@H](N)CC[C@@H]2C)cc2nc(-c3cc4ccc(-c5cc6cn[nH]c6cc5C)nc4n3CC3CC3)n(C)c12 [Example 256, ((2S,5R)-5-amino-2-methylpiperidin-1-yl)(2-(1-(cyclopropylmethyl)-6-(6-methyl-1H-indazol-5-yl)-1H-pyrrolo[2,3-b]pyridin-2-yl)-7-methoxy-1-methyl-1H-benzo[d]imidazol-5-yl)methanone]
146 nM | COc1cc(C(=O)N2C[C@H](N)CC[C@@H]2C)cc2nc(-c3cc4ccc(-n5c(C)cccc5=O)nc4n3CC3CC3)n(C)c12 [Example 282, 1-(2-(5-((2S,5R)-5-amino-2-methylpiperidine-1-carbonyl)-7-methoxy-1-methyl-1H-benzo[d]imidazol-2-yl)-1-(cyclopropylmethyl)-1H-pyrrolo[2,3-b]pyridin-6-yl)-6-methylpyridin-2(1H)-one]
1720 nM | CNC(=O)c1ccc2cc(-c3nc4cc(C(=O)N5C[C@H](N)CC[C@@H]5C)cc(OC)c4n3C)n(CC3CC3)c2n1 [Example 251, 2-(5-((2S,5R)-5-amino-2-methylpiperidine-1-carbonyl)-7-methoxy-1-methyl-1H-benzo[d]imidazol-2-yl)-1-(cyclopropylmethyl)-N-methyl-1H-pyrrolo[2,3-b]pyridine-6-carboxamide]
142 nM | COc1cc(C(=O)N2C[C@H](N)CCN2C)cc2nc(-c3cc4ccc([C@@H](C)NC(=O)C5(CC(F)F)CC5)nc4n3CC3CC3)n(C)c12 [Example 193, N-((R)-1-(2-(5-((R)-5-amino-2-methylhexahydropyridazine-1-carbonyl)-7-methoxy-1-methyl-1H-benzo[d]imidazol-2-yl)-1-(cyclopropylmethyl)-1H-pyrrolo[2,3-b]pyridin-6-yl)ethyl)-1-(2,2-difluoroethyl)cyclopropane-1-carboxamide]

Same assay, conditions: recombinant PAD4 5 nM, 2 mM calcium chloride, 3 mM BAEE substrate; geometric mean of multiple experiments

IC50 | Compound
65.9 nM | COc1cc(C(=O)N2C[C@H](N)[C@@H]3CC[C@H]2C3)cc2nc(-c3cc4ccc([C@@H](C)NC(=O)c5ccc(C(F)F)nc5)nc4n3CC3CC3)n(C)c12 [Example 297, N-((R)-1-(2-(5-((1S,4R,5R)-4-amino-2-azabicyclo[3.2.1]octane-2-carbonyl)-7-methoxy-1-methyl-1H-benzo[d]imidazol-2-yl)-1-(cyclopropylmethyl)-1H-pyrrolo[2,3-b]pyridin-6-yl)ethyl)-6-(difluoromethyl)nicotinamide]
174 nM | COc1cc(C(=O)N2C[C@H](N)[C@@H]3CC[C@H]2C3)cc2nc(-c3cc4ccc([C@@H](C)NC(=O)C5(C(F)(F)F)CC5)nc4n3CC3CC3)n(C)c12 [Example 289, N-((R)-1-(2-(5-((1S,4R,5R)-4-amino-2-azabicyclo[3.2.1]octane-2-carbonyl)-7-methoxy-1-methyl-1H-benzo[d]imidazol-2-yl)-1-(cyclopropylmethyl)-1H-pyrrolo[2,3-b]pyridin-6-yl)ethyl)-1-(trifluoromethyl) cyclopropane-1-carboxamide]
103 nM | COc1cc(C(=O)N2C[C@H](N)[C@@H]3CC[C@H]2C3)cc2nc(-c3cc4ccc([C@@H](C)NC(=O)C5(F)CC5)nc4n3CC3CC3)n(C)c12 [Example 326, N-((R)-1-(2-(5-((1S,4R,5R)-4-amino-2-azabicyclo[3.2.1]octane-2-carbonyl)-7-methoxy-1-methyl-1H-benzo[d]imidazol-2-yl)-1-(cyclopropylmethyl)-1H-pyrrolo[2,3-b]pyridin-6-yl)ethyl)-1-fluorocyclopropane-1-carboxamide]
